Source: patent US4029671A, “3-[(5-nitro-2-imidazolyl)pyrazol-5-yl]oxamic acid derivatives” (priority 1976, dated 1977)
In brackets after ≈: the same amount, converted by molar mass.

Assays:
[1] = system: Bacteroides fragilis sp. fragilis 1874; experiment: Agar dilution susceptibility of anaerobic bacteria (Chart 1); type: cell-based; conditions: agar dilution, 37° C.; Bacteroides fragilis sp. fragilis 1874
Salmonella typhimurium = experiment: Control of infections caused by Salmonella typhimurium in chickens (Chart 2); type: in vivo; conditions: 60 mg./kg. subcutaneous, day-old chicks, 5 per group, 6 days observation
Procedure: The efficacy of the novel compounds in the control of infections caused by Salmonella typhimurium in chickens was evaluated in the following manner. The test was carried out using day-old chicks weighing approximately 35 g. each. The chicks were divided into groups of 5 chicks per each dosage level. A portion of the chicks received the test compound which was suspended in 0.2 ml. of polyethylene glycol 200 and administered subcutaneously in the neck. […] All the chicks were challenged with a 1:200 dilution of a culture of the organism, 0.1 ml. of the dilution being injected into each chick in the leg intramuscularly. […] The test compounds are identified in the same manner as set forth in experiment 1. In the chart, column 1 lists the compounds tested; column 2, the dosage of test compound in mg./kg.; and column 3, the survival ratio.

[2] = system: Fusobacterium necrophorum 6054A; experiment: Agar dilution susceptibility of anaerobic bacteria (Chart 1); type: cell-based; conditions: Fusobacterium necrophorum, 6054A, 24 h, agar dilution, 37° C.; Fusobacterium necrophorum 6054A; read-out: 24 Hr. MIC
[3] = system: Bacteroides fragilis sp. fragilis 107; experiment: as above; type: cell-based; conditions: Bacteroides fragilis, 24 h, agar dilution, 37° C.; Bacteroides fragilis sp. fragilis 107; read-out: 24 Hr. MIC
[4] = system: Bacteroides fragilis sp. fragilis 2; experiment: as above; type: cell-based; conditions: Bacteroides fragilis, 24 h, agar dilution, 37° C.; Bacteroides fragilis sp. fragilis 2; read-out: 24 Hr. MIC
[5] = system: Bacteroides fragilis sp. fragilis 106; experiment: as above; type: cell-based; conditions: Bacteroides fragilis, 24 h, agar dilution, 37° C.; Bacteroides fragilis sp. fragilis 106; read-out: 24 Hr. MIC
[6] = system: Bacteroides melaninogenicus 2736; experiment: as above; type: cell-based; conditions: 2736, 24 h, agar dilution, 37° C.; Bacteroides melaninogenicus 2736; read-out: 24 Hr. MIC
[7] = system: Propionibacterium acnes 79; experiment: as above; type: cell-based; conditions: Cutibacterium acnes, 79, 24 h, agar dilution, 37° C.; Propionibacterium acnes 79; read-out: 24 Hr. MIC
[8] = system: Bacteroides fragilis sp. fragilis 110; experiment: as above; type: cell-based; conditions: Bacteroides fragilis, 24 h, agar dilution, 37° C.; Bacteroides fragilis sp. fragilis 110; read-out: 24 Hr. MIC
[9] = system: Actinomyces israelii W855; experiment: as above; type: cell-based; conditions: 24 h, agar dilution, 37° C., read-out: 24 Hr. MIC
[10] = system: Fusobacterium symbiosum 1470; experiment: as above; type: cell-based; conditions: Fusobacterium, 1470, 24 h, agar dilution, 37° C.; Fusobacterium symbiosum 1470; read-out: 24 Hr. MIC
[11] = system: Bacteroides fragilis sp. fragilis 111; experiment: as above; type: cell-based; conditions: Bacteroides fragilis, 24 h, agar dilution, 37° C.; Bacteroides fragilis sp. fragilis 111; read-out: 24 Hr. MIC
[12] = system: Bacteroides fragilis sp. fragilis 1470; experiment: as above; type: cell-based; conditions: Bacteroides fragilis, 24 h, agar dilution, 37° C.; Bacteroides fragilis sp. fragilis 1470; read-out: 24 Hr. MIC
[13] = system: Bacteroides melaninogenicus 1856/28; experiment: as above; type: cell-based; conditions: agar dilution, 37° C.; Bacteroides melaninogenicus 1856/28
[14] = system: Peptococcus asaccharolyticus 1302; experiment: as above; type: cell-based; conditions: agar dilution, 37° C.; Peptococcus asaccharolyticus 1302
[15] = system: Eubacterium aerofaciens 1235; experiment: as above; type: cell-based; conditions: Collinsella aerofaciens, 1235, 24 h, agar dilution, 37° C.; Eubacterium aerofaciens 1235; read-out: 24 Hr. MIC
[16] = system: Bacteroides fragilis sp. vulgatis 1563; experiment: as above; type: cell-based; conditions: agar dilution, 37° C.; Bacteroides fragilis sp. vulgatis 1563
[17] = system: Bacteroides fragilis sp. fragilis 103; experiment: as above; type: cell-based; conditions: agar dilution, 37° C.; Bacteroides fragilis sp. fragilis 103
[18] = system: Peptostreptococcus anaerobius 1428; experiment: as above; type: cell-based; conditions: Peptostreptococcus anaerobius, 1428, 24 h, agar dilution, 37° C.; Peptostreptococcus anaerobius 1428; read-out: 24 Hr. MIC
Peptococcus prevoti 1281 = experiment: as above; type: cell-based; conditions: 24 h, read-out: 24 Hr. MIC, agar dilution, 37° C.
[19] = system: Bacteroides fragilis sp. fragilis 1451; experiment: as above; type: cell-based; conditions: Bacteroides fragilis, 24 h, agar dilution, 37° C.; Bacteroides fragilis sp. fragilis 1451; read-out: 24 Hr. MIC
[20] = system: Bacteroides vulgatis 1211; experiment: as above; type: cell-based; conditions: Bacteroides, 1211, 24 h, agar dilution, 37° C.; Bacteroides vulgatis 1211; read-out: 24 Hr. MIC
[21] = system: Clostridium perfringens 81; experiment: microbe, parasite or virus in culture; type: cell-based; conditions: Clostridium perfringens, 81, 24 h, read-out: 24 Hr. MIC, agar dilution, 37° C.
[22] = system: Bacteroides fragilis sp. fragilis 104; experiment: Agar dilution susceptibility of anaerobic bacteria (Chart 1); type: cell-based; conditions: 24 h; agar dilution, 37° C.; Bacteroides fragilis sp. fragilis 104; read-out: 24 Hr. MIC
[23] = system: Bacteroides fragilis sp. fragilis 62; experiment: as above; type: cell-based; conditions: agar dilution, 37° C.; Bacteroides fragilis sp. fragilis 62
[24] = system: Bacteroides fragilis sp. thetaiotaomicron 1900A; experiment: as above; type: cell-based; conditions: Bacteroides fragilis, 24 h, agar dilution, 37° C.; Bacteroides fragilis sp. thetaiotaomicron 1900A; read-out: 24 Hr. MIC
[25] = system: Peptostreptococcus intermedius 1264; experiment: as above; type: cell-based; conditions: agar dilution, 37° C.; Peptostreptococcus intermedius 1264

CCOC(=O)C(=O)Nc1c(C#N)c(-c2ncc([N+](=O)[O-])n2C)nn1C [Example 1, N-[4-Cyano-1-methyl-3-(1-methyl-5-nitroimidazol-2-yl)pyrazol-5-yl]oxamic acid, ethyl ester] was tested, and the “24 Hr. MIC” value [1] was 0.06 µg/mL, the “Survival Ratio” value (Salmonella typhimurium) was 4/5 and the MIC [2] was no more than 0.25 µg/mL. The MIC [3] was 0.25 µg/mL (≈ 0.72 µM), the MIC [4] was 0.25 µg/mL (≈ 0.72 µM) and the MIC [5] was 0.125 µg/mL (≈ 0.36 µM). The MIC [6] was no more than 0.25 µg/mL, the MIC [7] was 32 µg/mL (≈ 92.1 µM) and the MIC [8] was 0.25 µg/mL (≈ 0.72 µM). The MIC [9] was greater than 64 µg/mL, the MIC [10] was no more than 0.25 µg/mL and the MIC [11] was 0.125 µg/mL (≈ 0.36 µM). For the same compound, the MIC [12] was 0.125 µg/mL (≈ 0.36 µM), the “24 Hr. MIC” value [13] was 16 µg/mL and the “24 Hr. MIC” value [14] was 1.0 µg/mL. The MIC [15] was 0.5 µg/mL (≈ 1.44 µM), the “24 Hr. MIC” value [16] was 0.125 µg/mL and the “24 Hr. MIC” value [17] was no more than 0.03 µg/mL. For the same compound, the MIC [18] was no more than 0.25 µg/mL, the MIC (Peptococcus prevoti 1281) was no more than 0.25 µg/mL and the MIC [19] was 0.25 µg/mL (≈ 0.72 µM). The MIC [20] was no more than 0.25 µg/mL, the MIC [21] was 0.5 µg/mL (≈ 1.44 µM) and the MIC [22] was 0.25 µg/mL (≈ 0.72 µM). For the same compound, the “24 Hr. MIC” value [23] was 0.25 µg/mL, the MIC [24] was 0.25 µg/mL (≈ 0.72 µM) and the “24 Hr. MIC” value [25] was 16 µg/mL.
